Laboratory results taken from paper PMC5045383 (Oncotarget, 2016).

How the values were obtained:
[1] = target: FLT3-ITD kinase; set-up: method as in PMID 22037378; conditions: cited from earlier work
[2] = test system: MOLM14 cells; experiment: Apoptosis effect examination (PARP, Caspase-3 immunoblot); assay type: cell-based, human; conditions: MOLM14, 24 hours; more pronounced at 3 μM
Source text: (§1) Cells were then washed in PBS and lysed in cell lysis buffer. PARP, Caspase-3, GAPDH antibodies (Cell signaling Technology) were used for immunoblotting.

[3] = test system: MV4-11 cells; experiment: as above; assay type: cell-based, human; conditions: MV4-11, 24 hours; more significantly at 1 μM
Source text: as §1

[4] = test system: FLT3-ITD-positive AML patient primary cells; experiment: Anti-proliferation, AML patient primary cells; assay type: cell-based, human; conditions: at 1 μM; compared to normal bone marrow cells
Procedure: Mononuclear cells were isolated from samples from AML patients identified as harboring mutant FLT3. Cells were tested in liquid culture (DMEM, supplemented with 20% FBS) in the presence of different concentrations of inhibitors. All blood and bone marrow samples from AML patients were obtained under approval of the Dana Farber Cancer Institute Institutional Review Board. The ethics committees approved the consent procedure. All studies were performed with ACUC approved protocols at DFCI.

[5] = test system: MOLM14; experiment: Colony formation (clonogenic) assay; assay type: cell-based, human; conditions: MOLM14, 15 days
Procedure: (§2) In brief, 1 mL of 3% agarose combined with 1 mL MOLM-13, MOLM-14, MV4-11, PF-382, U937, HL-60 growth media was used as the bottom agar in a 6-well plate. […] Cells were maintained in a humidified 5% CO2 incubator at 37°C for 15 days. On the 15th day, the numbers of colonies in each well were counted and each measurement was performed in triplicate.

[6] = test system: PF382; experiment: Colony formation (clonogenic) assay; assay type: cell-based, human; conditions: PF382, 15 days
Procedure: as §2

[7] = test system: MOLM13; experiment: Colony formation (clonogenic) assay; assay type: cell-based, human; conditions: MOLM13, 15 days
Procedure: as §2

[8] = test system: MV4-11; experiment: Colony formation (clonogenic) assay; assay type: cell-based, human; conditions: MV4-11, 15 days
Procedure: as §2

[9] = test system: U937; experiment: Colony formation (clonogenic) assay; assay type: cell-based, human; conditions: U937, 15 days
Procedure: as §2

[10] = test system: HL-60; experiment: Colony formation (clonogenic) assay; assay type: cell-based, human; conditions: HL-60, 15 days
Procedure: as §2

[11] = test system: MOLM-14 xenograft tumor; experiment: MOLM-14 xenograft tumor model; assay type: in vivo, Balb/c-nu mice; conditions: daily oral gavage, MOLM14 xenograft
Source text: Five weeks old female Balb/c-nu mice were purchased from the Shanghai Experimental Center, Chinese Science Academy (Shanghai, China). All animals were housed in a specific pathogen-free facility and used according to the animal care regulations of Hefei Institutes of Physical Science Chinese Academy of Sciences. Prior to implantation, cells were harvested during exponential growth. 10 million MOLM-14 cells in 1640 were formulated as a 1:1 mixture with Matrigel (BD Biosciences) and injected into the subcutaneous space on the right flank of Balb/c-nu mice. Daily oral administration was initiated when MOLM-14 tumors had reached a size of 200 to 400 mm^3. Animals were then randomized into treatment groups of 10 mice each for efficacy studies. […] Tumor growth was measured daily after A674563 treatment. Tumor volumes were calculated as follows: tumor volume (mm^3) = [(W^2 × L)/2] in which width (W) is defined as the smaller of the two measurements and length (L) is defined as the larger of the two measurements.

[12] = test system: BaF3; experiment: Anti-proliferation, parental BaF3 cells; assay type: cell-based
Procedure: Cells were grown in 96-well culture plates (3000/well). […] Cell proliferation was determined after 72 hours drug treatment. […] Cell viability was measured with the CellTiter–Glo assay (Promega, USA), according to the manufacturer's instructions, and luminescence was measured in a multi-label reader (Envision, PerkinElmer, USA). Data were normalized to control groups (DMSO) and represented by the mean of three independent measurements with standard error < 20%. GI50 values were calculated using Prism 5.0 (GraphPad Software, San Diego, CA).
Retroviral constructs for BaF3-FLT3 mutants were made based on the pMSCVpuro (Clontech) backbone. For TEL-FLT3 vector, the first 1 kb of human TEL gene with an artificial myristoylation sequence ([…]) was cloned into pMSCVpuro retroviral vector, followed by a 3xFLAG tag sequence and a stop codon. Then the kinase domain coding sequence of FLT3 was inserted in-frame between TEL and 3× FLAG sequences. For full-length expression vectors, the coding sequences of FLT3 variants were directly cloned in pMSCVpuro vector with a 3X FLAG tag at the C-terminal end. All mutagenesis studies were performed using the QuikChange Site-Directed Mutagenesis Kit (Stratagene) following the manufacturer's instructions. […]

[13] = test system: FLT3-ITD; experiment: Kinase kinetic assay (ADP-Glo, varied ATP); assay type: biochemical; conditions: range of ATP concentrations
Procedure: Kinetic analyses of FLT3-ITD were performed using a luminometric kinase assay varying the concentration of ATP using the ADP-Glo reagents (Promega). […] After 60 min incubation at RT, various concentrations of ATP, 0.2 μg/μL FLT3 substrate Poly (4:1 Glu, Tyr) peptide added and incubated for 60 min at 37°C. The overall rate of reaction is determined as the slope of the decreasing phase of the reaction. Each data point was collected in duplicate and kinetic parameters were obtained using Prism 5.0 (GraphPad Software, San Diego, CA).

[14] = test system: FLT3-ITD mediated signaling in MOLM14 and MV4-11 cell lines; experiment: Signaling pathway effect examination (immunoblot); assay type: cell-based, human; conditions: intact FLT3-ITD-positive cell lines, 4 hours
Source text: Cells were then washed in PBS and lysed in cell lysis buffer. FLT3, Phospho-FLT3 (Tyr589/591), AKT, Phospho-AKT Ser473, Phospho-AKT Thr308, GSK-3β, Phospho-GSK-3β (Ser9), Phospho-FoxO1 (Thr24), FoxO1, PRAS40, Phospho-PRAS40 (Thr246), STAT5, Phospho-STAT5 (Tyr694), NF-ΚB-P65, Phospho-NF-ΚB-P65 (Ser536), P70S6K, Phospho-P70S6K Thr389, 4EBP1, Phospho-4EBP1 (Thr37/46), ERK, Phospho-p44/42MAPK (Erk1/2) (Thr202/Tyr204), C-Myc and GAPDH antibodies (Cell Signaling Technology) were used for immunoblotting.

Cc1[nH]nc2ccc(-c3cncc(OC[C@@H](N)Cc4ccccc4)c3)cc12 [A674563]
Kd [1]: 0.083 µM
concentration at which induction of apoptosis was evident [2]: 1 µM
concentration at which apoptosis was induced [3]: 0.3 µM
anti-proliferation activity in patient primary cells [4]: potent anti-proliferation activity
EC50 [5]: 0.061 µM
EC50 [6]: 0.861 µM
EC50 [7]: 0.17 µM
EC50 [8]: 0.092 µM
EC50 [9]: 0.505 µM
EC50 [10]: 0.387 µM
tumor growth inhibition (TGI) ([11]; 25 mg/kg/d): 45%
tumor growth inhibition (TGI) ([11]; 50 mg/kg/day): 78%
GI50 [12]: 1.6 µM
mode of inhibition (kinetics analysis) [13]: ATP competitive inhibitor
concentration from which auto-phosphorylation of FLT3-ITD at Y589/591 is affected [14]: ≥ 5 µM
concentration from which phosphorylation of STAT5 and expression of c-MYC are inhibited [14]: ≥ 0.5 µM
